From US7807828B2, “Olanzapine analogs and methods of use thereof” (Hypnion, Inc., priority 2005, dated 2010)
pKi: −log10 of the molar value. Several values for one entry are separate records, joined by “and”; a condition that tells them apart may be missing. Equal entries are not always repeated.

Legend:
[1] = molecular target: T1, histamine H1 receptor (bovine) (Bos taurus, UniProt P30546); test: Histamine H1 binding assay, bovine cerebellar membranes, [3H]pyrilamine; settings: for Ki: Table 7A, Ki in nM
T1 construct: the receptors were obtained from bovine cerebellar membrane tissue; from tissue; host or cells: bovine cerebellar membranes
T1 sequence (P30546 whole entry): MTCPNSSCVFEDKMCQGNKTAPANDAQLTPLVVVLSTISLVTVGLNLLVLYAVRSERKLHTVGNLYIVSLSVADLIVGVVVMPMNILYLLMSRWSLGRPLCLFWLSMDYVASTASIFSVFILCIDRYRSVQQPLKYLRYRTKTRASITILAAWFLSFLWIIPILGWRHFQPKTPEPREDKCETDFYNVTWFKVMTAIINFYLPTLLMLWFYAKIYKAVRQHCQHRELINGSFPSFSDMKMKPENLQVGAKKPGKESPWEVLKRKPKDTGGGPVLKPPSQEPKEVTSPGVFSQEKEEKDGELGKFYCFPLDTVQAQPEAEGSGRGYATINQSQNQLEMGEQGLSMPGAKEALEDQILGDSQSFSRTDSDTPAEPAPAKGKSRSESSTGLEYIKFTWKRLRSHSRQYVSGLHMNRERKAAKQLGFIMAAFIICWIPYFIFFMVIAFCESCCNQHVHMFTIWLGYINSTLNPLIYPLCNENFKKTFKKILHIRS

[2] = molecular target: T2, H1 (hr) (Homo sapiens, UniProt P35367); test: H1 (hr) Novascreen binding assay; settings: Table 7A; Ki in nM
T2 construct: Novascreen, MDS, Cerep (assay providers)
T2 sequence (P35367 whole entry): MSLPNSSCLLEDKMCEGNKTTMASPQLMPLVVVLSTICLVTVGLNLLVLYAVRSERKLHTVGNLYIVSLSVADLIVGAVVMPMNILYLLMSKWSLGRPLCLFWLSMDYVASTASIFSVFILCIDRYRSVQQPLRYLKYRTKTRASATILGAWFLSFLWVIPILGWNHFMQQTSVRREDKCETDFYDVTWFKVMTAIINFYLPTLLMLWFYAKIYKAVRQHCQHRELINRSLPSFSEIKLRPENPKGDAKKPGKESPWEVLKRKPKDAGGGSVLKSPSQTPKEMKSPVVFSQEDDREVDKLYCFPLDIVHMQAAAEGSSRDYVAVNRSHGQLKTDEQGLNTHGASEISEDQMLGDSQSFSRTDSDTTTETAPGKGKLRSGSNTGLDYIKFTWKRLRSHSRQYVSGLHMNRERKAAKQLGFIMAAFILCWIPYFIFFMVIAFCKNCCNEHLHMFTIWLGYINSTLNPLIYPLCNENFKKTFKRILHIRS
Method: Binding assays were performed using various sleep-inducing agents and derivatives selected from those listed in Table 1 in competitive binding assays with known standards for the H1 histamine receptor, and the M1, M2, and M3 muscarinic receptors, alpha 1 and alpha 2 receptors, D1 and D2 receptors, 5HT2a, 5HT2b, 5HT2c, 5HT2c, and 5HT7 receptors.
The histamine H1 assays are described in Chang, et al., Heterogeneity of Histamine H1-Receptors: Species Variation in [^3H]Mepyramine Binding of Brain Membranes. Journal of Neurochemistry. 32: 1653-1663 (1979); Martinez-Mir, M. I., Pollard, H., Moreau, J., et al. Three Histamine Receptors (H1, H2, and H3) Visualized in the Brain of Human and Non-Human Primates. Brain Res. 526: 322-327 (1990); Haaksma, E. E. J., Leurs, R. and Timmerman, H. Histamine Receptors: Subclasses and Specific Ligands. Pharmac. Ther. 47: 73-104 (1990). The muscarinic assays are described in Buckley, N. J., Bonner, T. I., Buckley, C. M., and Brann, M. R. Antagonist Binding Properties of Five Cloned Muscarinic Receptors Expressed in CHO-K1 Cells. Mol. Pharmacol. 35: 469-476 (1989). The assays were performed according to the preceding articles, with the following modifications. Chemical reagents in the following were obtained from Sigma, St. Louis, Mo.

[3] = molecular target: T3, 5HT2a (hctx) (Homo sapiens, UniProt P28223); test: 5HT2a (hctx) binding assay; settings: Table 7B; unit inferred
T3 construct: (hctx); from tissue; host or cells: human cortex (my reading of 'hctx')
T3 sequence (P28223 whole entry): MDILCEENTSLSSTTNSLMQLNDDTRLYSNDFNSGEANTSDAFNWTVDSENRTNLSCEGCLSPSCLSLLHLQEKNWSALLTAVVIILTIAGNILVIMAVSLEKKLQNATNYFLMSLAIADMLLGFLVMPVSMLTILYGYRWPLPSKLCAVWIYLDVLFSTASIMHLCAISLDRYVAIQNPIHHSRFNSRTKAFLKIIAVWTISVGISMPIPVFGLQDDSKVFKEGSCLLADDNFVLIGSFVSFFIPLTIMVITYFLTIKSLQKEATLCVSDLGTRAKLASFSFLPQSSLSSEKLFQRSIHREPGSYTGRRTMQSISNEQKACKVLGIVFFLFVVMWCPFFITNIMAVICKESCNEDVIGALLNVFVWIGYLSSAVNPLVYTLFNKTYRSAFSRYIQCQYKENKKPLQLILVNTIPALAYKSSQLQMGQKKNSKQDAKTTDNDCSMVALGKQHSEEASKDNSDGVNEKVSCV

[4] = tested on: adult, male Wistar rats; test: Sleep-wakefulness monitoring (SCORE-2000, EEG/EMG) in rats; assay type: in vivo, rat; settings: minutes; for LONGEST UNINTERRUPTED SLEEP BOUT 10 mg/kg / NREM CUMULATION 10 mg/kg: oral bolus at CT-18, 10 mg/kg
Method: Sleep-wakefulness, locomotor activity and body temperature are monitored in male Wistar rats treated with a test compound (i.e., olanzapine analog) initially at a concentration of 10 mg/kg. Higher and lower doses are assayed for select compounds (e.g., as high as 45 mg/kg, and as low as necessary to establish a no-effect dose). Treatments are administered at CT-18, the peak of the activity dominated period (6 hours after lights-off), and produced soporific (sleep-inducing) effects characterized by increased non-REM sleep time, increased sleep continuity, but without evidence of REM sleep inhibition or rebound insomnia.
Sleep-wakefulness, locomotor activity and body temperature were monitored in vivo with various compounds of the invention. Adult, male Wistar rats (250 g at time of surgery, Charles River Laboratories, Wilmington Mass.) were anesthetized (2% isoflourane in medical grade oxygen) and surgically prepared with a cranial implant to permit chronic electro-encephalogram (EEG) and electromyogram (EMG) recording. Body temperature and locomotor activity were monitored via a miniature transmitter (Mini-Mitter, Bend, Oreg.) surgically placed in the abdomen. The cranial implant consisted of stainless steel screws (two frontal (+3.2 AP from bregma, ±2.0 ML) and two occipital (−6.9 AP, ±5.5 ML)) for EEG recording. Two Teflon®-coated stainless steel wires were positioned under the nuchal trapezoid muscles for EMG recording. All leads were soldered to a miniature connector prior to surgery, and gas sterilized in ethylene oxide. The implant assembly was affixed to the skull with dental acrylic. A minimum of three weeks was allowed for surgical recovery.
Each rat was permanently housed in its own individual recording cage located within separate, ventilated compartments of custom-designed stainless steel cabinets. Each cage was enhanced with a filter-top riser and low-torque swivel-commutator. Food and water were available ad libitum. A 24-hr light-dark cycle (12 hours light, 12 hours dark) was maintained throughout the study. Animals were undisturbed for at least 48 hours before and after treatments.
Sleep and wakefulness were determined using “SCORE-2000™” (Hypnion, Worcester, Mass.)—an internet-based sleep-wake and physiological monitoring system. The system monitored amplified EEG (bandpass 1-30 Hz), integrated EMG (bandpass 10-100 Hz), body temperature and non-specific locomotor activity (LMA) via telemetry, and drinking activity, continuously and simultaneously. Arousal states were classified on-line as non-REM (NREM) sleep, REM sleep, wake, or theta-dominated wake every 10 seconds. Total drinking and locomotor activity counts, and body temperature were quantitiated and recorded each minute, using EEG feature extraction and pattern-matching algorithms. […] The classification algorithm used individually-taught EEG-arousal-state templates, plus EMG criteria to differentiate REM sleep from theta-dominated wakefulness, plus behavior-dependent contextual rules (e.g., if the animal was drinking, it is awake). Drinking and locomotor activity intensity (LMA) were recorded every 10 seconds, while body temperature was recorded each minute. Locomotor activity was detected by a telemetry receiver (Mini-Mitter) beneath the cage. Telemetry measures (LMA and body temperature) were not part of the scoring algorithm; thus, sleep-scoring and telemetry data were independent measures.
Compounds were administered at CT-18, the peak of the activity-dominated period, sufficient time was allowed to view the time course of the treatment effect before lights-on (6 hours post-treatment). Compounds were suspended in sterile 0.25% or 0.5% methylcellulose (1-2 ml/kg). Treatments were administered orally as a bolus.
A parallel group study design was employed. […]

[5] = molecular target: T4, human recombinant M2 expressed in CHO cells (Homo sapiens, UniProt P08172); test: M2 muscarinic receptor binding assay; settings: Table 7A, M1 M2 M3
T4 construct: purchased PerkinElmer, Inc., Wellesley, Mass; host or cells: CHO cells
T4 sequence (P08172 1-466): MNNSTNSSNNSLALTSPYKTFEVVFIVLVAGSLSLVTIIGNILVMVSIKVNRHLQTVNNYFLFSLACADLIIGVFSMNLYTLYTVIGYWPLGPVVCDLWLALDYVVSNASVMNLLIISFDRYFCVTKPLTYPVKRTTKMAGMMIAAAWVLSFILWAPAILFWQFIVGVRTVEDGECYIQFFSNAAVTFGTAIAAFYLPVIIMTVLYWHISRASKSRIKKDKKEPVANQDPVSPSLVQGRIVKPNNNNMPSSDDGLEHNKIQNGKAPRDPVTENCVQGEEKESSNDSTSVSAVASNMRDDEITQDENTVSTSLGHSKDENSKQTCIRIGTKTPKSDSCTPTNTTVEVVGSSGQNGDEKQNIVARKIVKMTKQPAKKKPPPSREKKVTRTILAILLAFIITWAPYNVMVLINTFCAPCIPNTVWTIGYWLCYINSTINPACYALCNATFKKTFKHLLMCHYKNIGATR

Ki [1] [nM] | Ki [2] | pKi [3] | pKi [5] | SMILES | LONGEST UNINTERRUPTED SLEEP BOUT 10 mg/kg [4] [min] | NREM CUMULATION 10 mg/kg [4] [min] | LONGEST UNINTERRUPTED SLEEP BOUT 30 mg/kg ([4]; oral bolus at CT-18, 30 mg/kg) [min] | NREM CUMULATION 30 mg/kg ([4]; oral bolus at CT-18, 30 mg/kg) [min] | LONGEST UNINTERRUPTED SLEEP BOUT 3 mg/kg ([4]; oral bolus at CT-18, 3 mg/kg) [min] | specificity for H1 over the muscarinic receptors ([1]; from Ki for H1 and M1, M2, M3) | LONGEST UNINTERRUPTED SLEEP BOUT 0.3 mg/kg ([4]; oral bolus at CT-18, 0.3 mg/kg) [min] | LONGEST UNINTERRUPTED SLEEP BOUT 1 mg/kg ([4]; oral bolus at CT-18, 1 mg/kg) [min] | NREM CUMULATION 3 mg/kg ([4]; oral bolus at CT-18, 3 mg/kg) [min]
45.2 | 62 nM | 7.14 | < 5.00 | CC(C)c1cc2c(s1)Nc1ccccc1N=C2N1CCN(CC(C)(C)C(=O)O)CC1 [Compound 94] | 19.9 ± 3.7 | 47 ± 6 | – | – | – | – | – | – | –
53.5 | 119 nM | 6.63 | < 5.00 | Cc1cc2c(s1)Nc1ccccc1N=C2N1CCN(CCC(=O)O)CC1 [Compound 92] | 3.1 ± 2.5 | 10 ± 4 | 5.7 ± 1.8 | 27 ± 4 | – | – | – | – | –
30 | 70 nM | 6.50 | < 5.00 | CCc1cc2c(s1)Nc1ccccc1N=C2N1CCN(CC(C)(C)C(=O)O)CC1 [Compound 90] | – | 48 ± 8 | – | – | 12.3 ± 4.0 | – | – | – | –
30.1 | 60.6 nM | 7.23 | < 5.00 | Cc1cc2c(s1)Nc1ccccc1N=C2N1CCN(CC2(C(=O)O)CC2)CC1 [Compound 91] | 10.7 ± 3.2 | 26 ± 4 | – | – | – | – | – | – | –
56 | 30 nM and 44 nM | 6.19 | < 5.00 | Cc1cc2c(s1)Nc1ccccc1N=C2N1CCN(CC(C)(C)C(=O)O)CC1 [Compound 46] | 15.5 ± 4.1 | 42 ± 5 | – | – | 10.8 ± 3.2 | highly specific for H1 over the muscarinic receptors | 3.9 | 11.8 ± 2.7 | 38 ± 4
